The data set is described as follows: Particle size of the isolated crystalline product observed under a microscope.
Setting [1] is: two-stage mixing, co-precipitation of salicylic acid (20% w/v) and adipic acid (3% w/v) from acetone.
The mark [2] stands for this setting: two-stage mixing with two HFC 134A streams (FIG. 6 nozzle), no surfactant.

Where only a bound is given, the exact number is not on record here.

`CC(=O)Nc1ccc(O)cc1` [paracetamol, N-acetyl-p-aminophenol, reference compound] yielded a particle size (two-stage mixing, HFC 134A, 8% w/v in methanol with 1% w/w Brij 30) below 3 micron.
With `O=C(O)c1ccccc1O` [salicylic acid], the particle size result under setting [1] is given as “below 3 microns”.
Regarding `O=C(O)CCCCC(=O)O` [adipic acid, hexanedioic acid], the particle size range by setting is: (comparative single-stage mixing with one HFC 134A stream, no surfactant) 20-100 microns; (single-stage mixing, HFC 134A, 1% w/w Antorox B12 DF surfactant) 20-200 microns; under setting [2], 10-20 microns. The particle size reads like this: (single-stage mixing, HFC 134A, 1% w/w Brij 30 added to 10% w/v solution in ethanol) below 10 micron; under setting [1], “around 10 microns”.
Compound `O=[N+]([O-])[O-].[Ag+]` [silver nitrate] registered a particle size range under setting [2] of at most 3 microns.

The values are drawn from US7740775B2, “Method for the production of particles” (priority 2001, dated 2010).
